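Compound exposure: 48 hours, 5 concentrations, 96-well plates. GI50 = concentration required for 50% inhibition of growth.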 The source made the active and inactive calls. No stated cut-off is given here; in the data, active = GI50 up to about 1.1 µM and inactive = higher.
Key:
Assay in all cases: NCI-60 cell line screen, 48 h
[1] = tested on: HCT-116
[2] = tested on: Hs-578T
[3] = tested on: HOP-62
[4] = tested on: SR
[5] = tested on: SNB-75
[6] = tested on: OVCAR-4
[7] = tested on: A498
[8] = tested on: MDA-N
[9] = tested on: RPMI-8226
[10] = tested on: PC-3
[11] = tested on: MDA-MB-231
[12] = tested on: HCT-15
[13] = tested on: NCI/ADR-RES
[14] = tested on: SF-295
[15] = tested on: NCI-H522
[16] = tested on: UO-31
[17] = tested on: RXF 393
[18] = tested on: HL-60
[19] = tested on: MOLT-4

Compound | GI50 [1] | GI50 [2] | GI50 [3] | GI50 [4] | GI50 [5] | GI50 [6] | GI50 [7] | GI50 [8] | GI50 [9] | GI50 [10] | GI50 [11] | GI50 [12] | GI50 [13] | GI50 [14] | GI50 [15] | GI50 [16] | GI50 [17] | GI50 [18] | GI50 [19]
O=S(=O)(c1ccccc1)N1CCN(S(=O)(=O)c2ccccc2)c2ccccc21 | 45.2 µM (inactive) | > 100 µM (inactive) | > 100 µM (inactive) | > 100 µM (inactive) | > 100 µM (inactive) | > 100 µM (inactive) | > 100 µM (inactive) | 89.5 µM (inactive) | > 100 µM (inactive) | > 100 µM (inactive) | > 100 µM (inactive) | 92.7 µM | 95.7 µM (inactive) | 81.8 µM (inactive) | 42.5 µM (inactive) | > 100 µM (inactive) | > 100 µM (inactive) | – | –
COc1cc2ccc(C(=O)NCCCNC(=O)c3ccc4cc(OC)c(OC)cc4c3)cc2cc1OC | > 100 µM (inactive) | 36.6 µM (inactive) | > 100 µM (inactive) | 35.5 µM (inactive) | 32.9 µM (inactive) | 57.8 µM (inactive) | > 100 µM (inactive) | > 100 µM (inactive) | – | > 100 µM (inactive) | 97.1 µM (inactive) | > 100 µM | > 100 µM (inactive) | > 100 µM (inactive) | > 100 µM (inactive) | > 100 µM (inactive) | – | > 100 µM (inactive) | –
O=C(/C=C/c1ccc2c(c1)OCO2)c1ccc(O)cc1 | 13.4 µM (inactive) | 17.6 µM (inactive) | 26.8 µM (inactive) | 1.17 µM (inactive) | 25.1 µM (inactive) | 18.4 µM (inactive) | 23.4 µM (inactive) | 10.8 µM (inactive) | – | 15 µM (inactive) | 17.4 µM (inactive) | 13.4 µM | 1.76 µM (inactive) | 17.5 µM (inactive) | 3.01 µM (inactive) | 13.4 µM (inactive) | 15.6 µM (inactive) | 5.25 µM (inactive) | –
O=C1/C(=C\c2ccc([N+](=O)[O-])cc2)Sc2scc(-c3ccc(O)c(O)c3)[n+]21 | 4.2 µM (inactive) | 14.7 µM (inactive) | 13.4 µM (inactive) | 2.62 µM (inactive) | 9.25 µM (inactive) | 10.6 µM (inactive) | > 10 µM (inactive) | 5.41 µM (inactive) | 2.55 µM (inactive) | 5.71 µM (inactive) | 10.9 µM (inactive) | 2.33 µM | 4.84 µM (inactive) | 12.5 µM (inactive) | 1.76 µM (inactive) | 4.72 µM (inactive) | – | 2.37 µM (inactive) | 2.62 µM (inactive)
NCC(=O)N1CCN(c2nc(N3CCCC3)c3nc(Cl)c(NCc4ccccc4)nc3n2)CC1 | 1.79 µM (inactive) | 2.12 µM (inactive) | 1.56 µM (inactive) | 1.56 µM (inactive) | 1.57 µM (inactive) | 2.15 µM (inactive) | – | 1.82 µM (inactive) | – | 2.48 µM (inactive) | 1.85 µM (inactive) | 1.97 µM | 8.26 µM (inactive) | 1.86 µM (inactive) | 1.78 µM (inactive) | 1.66 µM (inactive) | 1.43 µM (inactive) | 1.81 µM (inactive) | 1.12 µM (inactive)
COc1ccc(NCC(=O)Nn2c(C)nc3ccc(S(=O)(=O)Nc4ccc(OC)cc4)cc3c2=O)cc1 | > 100 µM (inactive) | > 100 µM (inactive) | > 100 µM (inactive) | > 100 µM (inactive) | > 100 µM (inactive) | > 100 µM (inactive) | – | > 100 µM (inactive) | > 100 µM (inactive) | > 100 µM (inactive) | > 100 µM (inactive) | > 100 µM | > 100 µM (inactive) | > 100 µM (inactive) | > 100 µM (inactive) | > 100 µM (inactive) | – | > 100 µM (inactive) | > 100 µM (inactive)
CCOC(=O)C1(C(=O)OCC)[C@@H](c2ccccc2)C2=NO[C@@H]3CCC[C@H]1[C@H]23 | 45.5 µM (inactive) | > 100 µM (inactive) | 43.6 µM (inactive) | 40.7 µM (inactive) | 47.4 µM (inactive) | 43 µM (inactive) | – | 24.5 µM (inactive) | 23.5 µM (inactive) | 60.1 µM (inactive) | > 100 µM (inactive) | 56 µM | 56.9 µM (inactive) | 51.6 µM (inactive) | 42.1 µM (inactive) | 53.3 µM (inactive) | 48.4 µM (inactive) | 24.3 µM (inactive) | 55.7 µM (inactive)
COc1ccc(N2C(=O)C3c4[nH]c5ccccc5c4C4CCC(C(C)C)CC4C3C2=O)cc1 (stereo not given) | > 100 µM (inactive) | 40.7 µM (inactive) | 33 µM (inactive) | 40.7 µM (inactive) | 35.2 µM (inactive) | > 100 µM (inactive) | > 100 µM (inactive) | > 100 µM (inactive) | > 100 µM (inactive) | > 100 µM (inactive) | > 100 µM (inactive) | > 100 µM | > 100 µM (inactive) | 53 µM (inactive) | > 100 µM (inactive) | > 100 µM (inactive) | – | – | > 100 µM (inactive)
O=c1[nH]c(=O)n2n1C1C=CC2CC1 | > 100 µM (inactive) | > 100 µM (inactive) | > 100 µM (inactive) | > 100 µM (inactive) | > 100 µM (inactive) | – | > 100 µM (inactive) | > 100 µM (inactive) | > 100 µM (inactive) | > 100 µM (inactive) | > 100 µM (inactive) | > 100 µM | > 100 µM (inactive) | > 100 µM (inactive) | – | > 100 µM (inactive) | – | > 100 µM (inactive) | > 100 µM (inactive)
Cc1ccc(/C=C2\N=C(N3CCCC(CO)C3)NC2=O)cc1 (stereo not given) | > 100 µM (inactive) | > 100 µM (inactive) | > 100 µM (inactive) | > 100 µM (inactive) | > 100 µM (inactive) | > 100 µM (inactive) | – | > 100 µM (inactive) | > 100 µM (inactive) | > 100 µM (inactive) | > 100 µM (inactive) | > 100 µM | > 100 µM (inactive) | > 100 µM (inactive) | > 100 µM (inactive) | > 100 µM (inactive) | > 100 µM (inactive) | > 100 µM (inactive) | > 100 µM (inactive)
O=C(Nc1nncs1)NS(=O)(=O)n1cnc2ccccc21 | > 100 µM (inactive) | > 100 µM (inactive) | > 100 µM (inactive) | > 100 µM (inactive) | > 100 µM (inactive) | > 100 µM (inactive) | > 100 µM (inactive) | > 100 µM (inactive) | > 100 µM (inactive) | > 100 µM (inactive) | > 100 µM (inactive) | > 100 µM | > 100 µM (inactive) | > 100 µM (inactive) | > 100 µM (inactive) | – | > 100 µM (inactive) | > 100 µM (inactive) | > 100 µM (inactive)
S=C1Nc2cnc3ccccc3c2SC1c1ccccc1 (stereo not given) | > 100 µM (inactive) | 49.9 µM (inactive) | 42.9 µM (inactive) | > 100 µM (inactive) | 28.4 µM (inactive) | > 100 µM (inactive) | – | > 100 µM (inactive) | > 100 µM (inactive) | > 100 µM (inactive) | > 100 µM (inactive) | > 100 µM | > 100 µM (inactive) | 61.7 µM (inactive) | > 100 µM (inactive) | > 100 µM (inactive) | 13 µM (inactive) | > 100 µM (inactive) | > 100 µM (inactive)
CCc1cccc(C(C)C)c1NC(=O)C(=O)C1C(=O)Nc2ccccc2[S+]1[O-] (stereo not given) | > 100 µM (inactive) | > 100 µM (inactive) | > 100 µM (inactive) | > 100 µM (inactive) | > 100 µM (inactive) | > 100 µM (inactive) | > 100 µM (inactive) | > 100 µM (inactive) | > 100 µM (inactive) | > 100 µM (inactive) | > 100 µM (inactive) | > 100 µM | > 100 µM (inactive) | > 100 µM (inactive) | > 100 µM (inactive) | > 100 µM (inactive) | 56.1 µM (inactive) | – | > 100 µM (inactive)
CCC12CCCN(Cc3ccccc3)C1c1c([nH]c3ccccc13)C(C(=O)OC)C2 (stereo not given) | 4.08 µM (inactive) | > 10 µM (inactive) | > 10 µM (inactive) | 7.64 µM (inactive) | > 10 µM (inactive) | > 10 µM (inactive) | – | > 10 µM (inactive) | > 10 µM (inactive) | > 10 µM (inactive) | > 10 µM (inactive) | > 10 µM | > 10 µM (inactive) | > 10 µM (inactive) | > 10 µM (inactive) | – | – | 7.83 µM (inactive) | 5.85 µM (inactive)
O=S(=O)(O)c1ccc(NN(c2c(O)ccc3ccccc23)S(=O)(=O)O)cc1 | > 100 µM (inactive) | > 100 µM (inactive) | > 100 µM (inactive) | > 100 µM (inactive) | – | > 100 µM (inactive) | > 100 µM (inactive) | > 100 µM (inactive) | > 100 µM (inactive) | > 100 µM (inactive) | > 100 µM (inactive) | > 100 µM | > 100 µM (inactive) | > 100 µM (inactive) | > 100 µM (inactive) | > 100 µM (inactive) | – | > 100 µM (inactive) | > 100 µM (inactive)
C/C1=C/C[C@@H](/C(C)=C/c2csc(C)n2)OC(=O)C[C@H](O)C(C)(C)C(=O)[C@H](C)[C@@H](O)[C@@H](C)CCC1 [EPOTHILONE D] | < 0.0001 µM (active) | < 0.0001 µM (active) | < 0.0001 µM (active) | < 0.0001 µM (active) | < 0.0001 µM (active) | 0.137 µM (active) | – | < 0.0001 µM (active) | < 0.0001 µM (active) | < 0.0001 µM (active) | < 0.0001 µM (active) | < 0.0001 µM | < 0.0001 µM (active) | < 0.0001 µM (active) | < 0.0001 µM (active) | < 0.0001 µM (active) | < 0.0001 µM (active) | – | < 0.0001 µM (active)
